Data from US20240189330A1, “Compositions and Methods for Inhibiting and Treating Viral Infections” (The Regents of the University of California, priority 2021, published 2024).
Entries after “also recorded” stand apart in the source; their conditions may differ. Counter-ions that a name gives are not always drawn.

How the values were obtained:
[1] = system: human mammalian cells; conditions: cited from earlier work
[2] = system: Influenza A Virus, subtype H1N1; assay type: cell-based
[3] = system: Human rhinovirus type 16 (HRV16); assay type: cell-based

Row | SMILES | concentration physiologically relevant, efficacious and non-cytotoxic [1] [nM] | H1N1 viral replication by qPCR [2] | HRV16 viral replication by qPCR [3]
1 | COC1=C(OC)C(=O)C(CCCCCCCCCC[P+](c2ccccc2)(c2ccccc2)c2ccccc2)=C(C)C1=O [Mito-MES, 10-(4,5-dimethoxy-2-methyl-3,6-dioxo-1,4-cyclohexadienyl) decyl triphenylphosphonium] | < 2000 | – | –
2 | COC(=O)/C=C/C(=O)OC [DMF, dimethyl fumarate] | – | inhibit H1N1 replication; also recorded: inhibit the replication | minimally inhibit HRV16 replication; also recorded: little antiviral activity
